# Where a name gives a salt, the structure may show the parent alone.
# Tested on: platelet hyper-aggregation induced by ADP
# Test: Inhibition of ADP-induced platelet hyperaggregation in vitro (Born's method, aggregometer ELVI 840)
# Format: cell-based, New Zealand rabbits
# Conditions: Oryctolagus cuniculus, 0.5 h, ADP 20 μg/ml, 100 γ/ml of active compound, rabbit PRP, incubated 30 minutes at 37° C, read-out: Inhibition of platelet hyper-aggregation induced by ADP
# Experimental: Two separate centrifugations are effected (at 1000 rpm and at 6000 rpm), thus obtaining PRP ([…]) and PPP ([…]); the first is diluted with the second in order to obtain a platelet concentration of 300,000 per mm^3 (the count is effected in a Buerker apparatus). The compounds with a platelet antiaggregating activity of the present invention are added at the desired concentrations and incubated for 30 minutes at 37° C. with the aggregating agents. […] The various compounds represented by the numbers in the first column are identifiable by the numbers in the second column which refer to the examples described below in this specification.
row,SMILES,inhibition at 100 µg/mL [%]
1,"C=CCc1c(O)c(CN2CCC(O)CC2)cc2c(C)cc(=O)oc12 [Compound 200, 4-methyl-6-[(4-hydroxy-1-piperidinyl)methyl]-7-hydroxy-8-allylcumarin hydrochloride]",21
2,"CCOC(=O)C(C)(C)Oc1c(CN2CCOCC2)cc2c(C)c(CCN(CC)CC)c(=O)oc2c1Cl [Compound 68, Ethyl ester of 2-[3-(2-diethylaminoethyl)-4-methyl-6-(4-morpholinylmethyl)-8-chlorocumarin-7-yl]oxy-2-methylpropionic acid dihydrochloride]",41
3,"C=CCc1c(O)c(CN2CCOCC2)cc2c(C)cc(=O)oc12 [Compound 25, 4-methyl-6-(4-morpholinylmethyl)-7-hydroxy-8-allylcumarin hydrochlorode]",19
4,"C=CCc1c(OCC(=O)OCC)c(CN2CCOCC2)cc2c(C)cc(=O)oc12 [Compound 27, Ethyl ester of the acid [4-methyl-6-(4-morpholinylmethyl)-8-allylcumarin-7-yl]oxyacetic]",32
5,"Cc1cc(=O)oc2c(Cl)c(O)c(CN3CCOCC3)cc12 [Compound 69, 4-methyl-6-(4-morpholinylmethyl)-7-hydroxy-8-chlorocumarin hydrochloride]",29
6,"C=CCOc1c(CN2CCOCC2)cc2c(-c3ccccc3)cc(=O)oc2c1CC=C [Compound 50, 4-phenyl-6-(4-morpholinylmethyl)-7-allyloxy-8-allylcumarin hydrochloride]",25
7,"C=CCc1c(O)c(CN2CCCC(O)C2)cc2c(C)cc(=O)oc12 (stereo not shown) [Compound 201, 4-methyl-6-[(3-hydroxy-1-piperidinyl)methyl]-7-hydroxy-8-allylcumarin hydrochloride]",32
8,"C=CCc1c(O)c(CN(CC)CC)cc2c(C)cc(=O)oc12 [Compound 121, 4-methyl-6-diethylaminomethyl-7-hydroxy-8-allylcumarin hydrochloride]",51
9,"C=CCc1c(OC(C)(C)C(=O)OCC)c(CN2CCOCC2)cc2c(C)cc(=O)oc12 [Compound 29, Ethyl ester of the acid 2-[4-methyl-6-(4-morpholinylmethyl)-8-allylcumarin-7-yl]oxy-2-methylpropionic hydrochloride]",19
10,"C=CCc1c(OC(C)(C)C(=O)OCC)c(CN2CCOCC2)cc2c(-c3ccccc3)cc(=O)oc12 [Compound 52, Ethyl ester of 2-[4-phenyl-6-(4-morpholinylmethyl)-8-allylcumarin-7-yl]oxy-2-methylpropionic acid hydrochloride]",22
11,"Cc1cc(=O)oc2c(C)c(O)c(CN(C)C)cc12 [Compound 130, 4,8-dimethyl-6-dimethylaminomethyl-7-hydroxycumarin hydrochloride]",29
12,"C=CCc1c(OCC(=O)OCC)c(CN2CCOCC2)cc2c(-c3ccccc3)cc(=O)oc12 [Compound 51, Ethyl ester of [4-phenyl-6-(4-morpholinylmethyl)-8-allylcumarin-7-yl]oxy acetic acid hydrochloride]",37
13,"CCN(CC)CCc1c(C)c2cc(CN3CCOCC3)c(OC)c(Cl)c2oc1=O [Compound 105, 3-(2-diethylaminoethyl)-4-methyl-6-(4-morpholinylmethyl)-7-methoxy-8-chlorocumarin dihydrochloride]",28
14,"Cc1cc(=O)oc2c(C)c(O)c(CN3CCOCC3)cc12 [Compound 188, 4,8-dimethyl-6-(4-morpholinylmethyl)-7-hydroxycoumarin hydrochloride]",19
15,"C=CCc1c(O)c(CN2CCN(CCO)CC2)cc2c(-c3ccccc3)cc(=O)oc12 [Compound 49, 4-phenyl-6-[[4-(2-hydroxyethyl)-1-piperazinyl]methyl]-7-hydroxy-8-allylcumarin dihydrochloride]",25
16,"C=CCOc1c(CN2CCOCC2)cc2c(C)cc(=O)oc2c1CC=C [Compound 28, 4-methyl-6-(4-morpholinylmethyl)-7-allyloxy-8-allylcumarin hydrochloride]",54
